The values that follow come from US11964990B2, “1,3,4,7-tetrahydro-2H-pyrrolo[3′,2′:5,6]pyrido[2,3-b][1,4]oxazepine bcl-2 inhibitors” (AbbVie Inc., priority 2022, dated 2024).

Assay [1] has as its system Molt-4 cells. Description: Cell viability counter screen assay (CellTiter-Glo) in Molt-4 cells. The assay is classed as cell-based. The conditions noted are these: 24 hours, 10% Human Serum, 50% decrease in cell viability. The gist of the method:
(§1)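 RS4;11 or Molt-4 cells (3000 per well) in RPMI 1640 with 10% human serum treated with compound for 24 h, 5% CO2. Viability measured by CellTiter-Glo as percent of control; EC50 from sigmoidal dose-response curves.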

The test system of assay [2] is RS4;11 cells. The assay can be described thus: Cell viability assay (CellTiter-Glo) in RS4;11 cell line. The assay is classed as cell-based. The conditions noted are these: 24 hours, 10% Human Serum, 50% decrease in cell viability. The gist of the method:
as §1
(In general: ATP-based viability assays read luminescence as a measure of living cells.)

Broadly, the EC50 is the concentration that produces a half-maximal response.

Structures are written as SMILES. Bounds are passed on as bounds.

For `CN1CCC(Nc2ccc(S(=O)(=O)NC(=O)c3ccc(N4CCN5CC6=C(c7ccc(Cl)cc7)CC(C)(C)C[C@H]6OCCCOC[C@@H]5C4)cc3N3CCCOc4nc5[nH]ccc5cc43)cc2[N+](=O)[O-])CC1` [Example 31, 4-((4aS,10aR)-14-(4-chlorophenyl)-12,12-dimethyl-1,2,4a,5,8,9,10a,11,13,15-decahydro-7H,12H-benzo[f]pyrazino[2,1-c][1,8]dioxa[4]azacycloundecin-3(4H)-yl)-2-(3,4-dihydro-2H-pyrrolo[3′,2′:5,6]pyrido[2,3-b][1,4]oxazepin-1(7H)-yl)-N-((4-((1-methylpiperidin-4-yl)amino)-3-nitrophenyl)sulfonyl)benzamide], the EC50 in assay [1] was determined as 1220 nM; in assay [2], 3.24 nM.

With `CC1(C)CC(c2ccc(Cl)cc2)=C2CN3CCN(c4ccc(C(=O)NS(=O)(=O)c5ccc(NC[C@H]6CC[C@](C)(O)CC6)c([N+](=O)[O-])c5)c(N5CCCOc6nc7[nH]ccc7cc65)c4)C[C@H]3COCCCO[C@@H]2C1` [Example 32, 4-((4aS,10aR)-14-(4-chlorophenyl)-12,12-dimethyl-1,2,4a,5,8,9,10a,11,13,15-decahydro-7H,12H-benzo[f]pyrazino[2,1-c][1,8]dioxa[4]azacycloundecin-3(4H)-yl)-2-(3,4-dihydro-2H-pyrrolo[3′,2′:5,6]pyrido[2,3-b][1,4]oxazepin-1(7H)-yl)-N-((4-((((1r,4r)-4-hydroxy-4-methylcyclohexyl)methyl)amino)-3-nitrophenyl)sulfonyl)benzamide], the EC50 in assay [1] is 9570 nM; in assay [2] it was 1.67 nM.

As to `CO[C@H]1CC[C@H](COc2ccc(S(=O)(=O)NC(=O)c3ccc(N4CCN5CC6=C(c7ccc(Cl)cc7)CC(C)(C)C[C@H]6OCCCOC[C@@H]5C4)cc3N3CCCOc4nc5[nH]ccc5cc43)cc2[N+](=O)[O-])OC1` [Example 33, 4-((4aS,10aR)-14-(4-chlorophenyl)-12,12-dimethyl-1,2,4a,5,8,9,10a,11,13,15-decahydro-7H,12H-benzo[f]pyrazino[2,1-c][1,8]dioxa[4]azacycloundecin-3(4H)-yl)-2-(3,4-dihydro-2H-pyrrolo[3′,2′:5,6]pyrido[2,3-b][1,4]oxazepin-1(7H)-yl)-N-((4-(((2R,5S)-5-methoxytetrahydro-2H-pyran-2-yl)methoxy)-3-nitrophenyl)sulfonyl)benzamide], the values for the EC50 in assay [1] and in assay [2] were 6080 nM and 3.49 nM, respectively.

For `CO[C@H]1CC[C@H](CNc2ccc(S(=O)(=O)NC(=O)c3ccc(N4CCN5CC6=C(c7ccc(Cl)cc7)CC(C)(C)C[C@H]6OCCCOC[C@@H]5C4)cc3N3CCCOc4nc5[nH]ccc5cc43)cc2Cl)OC1` [Example 34, N-((3-chloro-4-((((2R,5S)-5-methoxytetrahydro-2H-pyran-2-yl)methyl)amino)phenyl)sulfonyl)-4-((4aS,10aR)-14-(4-chlorophenyl)-12,12-dimethyl-1,2,4a,5,8,9,10a,11,13,15-decahydro-7H,12H-benzo[f]pyrazino[2,1-c][1,8]dioxa[4]azacycloundecin-3(4H)-yl)-2-(3,4-dihydro-2H-pyrrolo[3′,2′:5,6]pyrido[2,3-b][1,4]oxazepin-1(7H)-yl)benzamide], the EC50 is greater than 10000 nM in assay [1] and 57.6 nM in assay [2].

With `COCCO[C@H]1CC[C@H](CNc2ccc(S(=O)(=O)NC(=O)c3ccc(N4CCN5CC6=C(c7ccc(Cl)cc7)CC(C)(C)C[C@H]6OCCCOC[C@@H]5C4)cc3N3CCCOc4nc5[nH]ccc5cc43)cc2[N+](=O)[O-])OC1` [Example 35, 4-((4aS,10aR)-14-(4-chlorophenyl)-12,12-dimethyl-1,2,4a,5,8,9,10a,11,13,15-decahydro-7H,12H-benzo[f]pyrazino[2,1-c][1,8]dioxa[4]azacycloundecin-3(4H)-yl)-2-(3,4-dihydro-2H-pyrrolo[3′,2′:5,6]pyrido[2,3-b][1,4]oxazepin-1(7H)-yl)-N-((4-((((2R,5S)-5-(2-methoxyethoxy)tetrahydro-2H-pyran-2-yl)methyl)amino)-3-nitrophenyl)sulfonyl)benzamide], the results for the EC50 in assay [1] and in assay [2] were 1740 nM and 1.47 nM, respectively.

On to `CC1(C)CC(c2ccc(Cl)cc2)=C2CN3CCN(c4ccc(C(=O)NS(=O)(=O)c5ccc(NC[C@H]6CC[C@@](C)(O)CC6)c([N+](=O)[O-])c5)c(N5CCCOc6nc7[nH]ccc7cc65)c4)C[C@H]3COCCCO[C@@H]2C1` [Example 36, 4-((4aS,10aR)-14-(4-chlorophenyl)-12,12-dimethyl-1,2,4a,5,8,9,10a,11,13,15-decahydro-7H,12H-benzo[f]pyrazino[2,1-c][1,8]dioxa[4]azacycloundecin-3(4H)-yl)-2-(3,4-dihydro-2H-pyrrolo[3′,2′:5,6]pyrido[2,3-b][1,4]oxazepin-1(7H)-yl)-N-((4-((((1s,4s)-4-hydroxy-4-methylcyclohexyl)methyl)amino)-3-nitrophenyl)sulfonyl)benzamide], for which the results for the EC50 in assay [1] and in assay [2] were 117 nM and 1.47 nM, respectively.

As for `CC1(C)CC(c2ccc(Cl)cc2)=C2CN3CCN(c4ccc(C(=O)NS(=O)(=O)c5ccc(NC[C@H]6CC[C@H](N7CCOCC7)CO6)c([N+](=O)[O-])c5)c(N5CCCOc6nc7[nH]ccc7cc65)c4)C[C@H]3COCCCO[C@@H]2C1` [Example 37, 4-((4aS,10aR)-14-(4-chlorophenyl)-12,12-dimethyl-1,2,4a,5,8,9,10a,11,13,15-decahydro-7H,12H-benzo[f]pyrazino[2,1-c][1,8]dioxa[4]azacycloundecin-3(4H)-yl)-2-(3,4-dihydro-2H-pyrrolo[3′,2′:5,6]pyrido[2,3-b][1,4]oxazepin-1(7H)-yl)-N-((4-((((2R,5S)-5-morpholinotetrahydro-2H-pyran-2-yl)methyl)amino)-3-nitrophenyl)sulfonyl)benzamide], the EC50 is 1450 nM in assay [1] and 1.05 nM in assay [2].

Turning to `CC1(C)CC(c2ccc(Cl)cc2)=C2CN3CCN(c4ccc(C(=O)NS(=O)(=O)c5ccc(NCC6(F)CCN(C7COC7)CC6)c([N+](=O)[O-])c5)c(N5CCCOc6nc7[nH]ccc7cc65)c4)C[C@H]3COCCCO[C@@H]2C1` [Example 39, 4-((4aS,10aR)-14-(4-chlorophenyl)-12,12-dimethyl-1,2,4a,5,8,9,10a,11,13,15-decahydro-7H,12H-benzo[f]pyrazino[2,1-c][1,8]dioxa[4]azacycloundecin-3(4H)-yl)-2-(3,4-dihydro-2H-pyrrolo[3′,2′:5,6]pyrido[2,3-b][1,4]oxazepin-1(7H)-yl)-N-((4-(((4-fluoro-1-(oxetan-3-yl)piperidin-4-yl)methyl)amino)-3-nitrophenyl)sulfonyl)benzamide], the EC50 in assay [1] was found to be 453 nM; in assay [2] it was 1.66 nM.

As to `CO[C@H]1CC[C@H](COc2ccc(S(=O)(=O)NC(=O)c3ccc(N4CCN5CC6=C(c7ccc(Cl)cc7)CC(C)(C)C[C@H]6OCCCOC[C@@H]5C4)cc3N3CCCOc4nc5[nH]ccc5cc43)cc2Cl)OC1` [Example 40, N-((3-chloro-4-(((2R,5S)-5-methoxytetrahydro-2H-pyran-2-yl)methoxy)phenyl)sulfonyl)-4-((4aS,10aR)-14-(4-chlorophenyl)-12,12-dimethyl-1,2,4a,5,8,9,10a,11,13,15-decahydro-7H,12H-benzo[f]pyrazino[2,1-c][1,8]dioxa[4]azacycloundecin-3(4H)-yl)-2-(3,4-dihydro-2H-pyrrolo[3′,2′:5,6]pyrido[2,3-b][1,4]oxazepin-1(7H)-yl)benzamide], the EC50 in assay [1] is greater than 10000 nM; in assay [2], 24.5 nM.

On to `CO[C@H]1C[C@H](CNc2ccc(S(=O)(=O)NC(=O)c3ccc(N4CCN5CC6=C(c7ccc(Cl)cc7)CC(C)(C)C[C@H]6OCCCOC[C@@H]5C4)cc3N3CCCOc4nc5[nH]ccc5cc43)cc2[N+](=O)[O-])C1` [Example 41, 4-((4aS,10aR)-14-(4-chlorophenyl)-12,12-dimethyl-1,2,4a,5,8,9,10a,11,13,15-decahydro-7H,12H-benzo[f]pyrazino[2,1-c][1,8]dioxa[4]azacycloundecin-3(4H)-yl)-2-(3,4-dihydro-2H-pyrrolo[3′,2′:5,6]pyrido[2,3-h][1,4]oxazepin-1(7H)-yl)-N-((4-((((1r,3r)-3-methoxycyclobutyl)methyl)amino)-3-nitrophenyl)sulfonyl)benzamide], for which the values for the EC50 in assay [1] and in assay [2] were greater than 10000 nM and 3.93 nM, respectively.

In the case of `CC1(C)CC(c2ccc(Cl)cc2)=C2CN3CCN(c4ccc(C(=O)NS(=O)(=O)c5ccc(OCC6CCOCC6)c([N+](=O)[O-])c5)c(N5CCCOc6nc7[nH]ccc7cc65)c4)C[C@H]3COCCCO[C@@H]2C1` [Example 46, 4-((4aS,10aR)-14-(4-chlorophenyl)-12,12-dimethyl-1,2,4a,5,8,9,10a,11,13,15-decahydro-7H,12H-benzo[f]pyrazino[2,1-c][1,8]dioxa[4]azacycloundecin-3(4H)-yl)-2-(3,4-dihydro-2H-pyrrolo[3′,2′:5,6]pyrido[2,3-b][1,4]oxazepin-1(7H)-yl)-N-((3-nitro-4-((tetrahydro-2H-pyran-4-yl)methoxy)phenyl)sulfonyl)benzamide], the EC50 in assay [1] was greater than 10000 nM; in assay [2], 9.36 nM.

For `CC1(C)CC(c2ccc(Cl)cc2)=C2CN3CCN(c4ccc(C(=O)NS(=O)(=O)c5ccc(OC[C@H]6CC[C@@](C)(O)CC6)c([N+](=O)[O-])c5)c(N5CCCOc6nc7[nH]ccc7cc65)c4)C[C@H]3COCCCO[C@@H]2C1` [Example 49, 4-((4aS,10aR)-14-(4-chlorophenyl)-12,12-dimethyl-1,2,4a,5,8,9,10a,11,13,15-decahydro-7H,12H-benzo[f]pyrazino[2,1-c][1,8]dioxa[4]azacycloundecin-3(4H)-yl)-2-(3,4-dihydro-2H-pyrrolo[3′,2′:5,6]pyrido[2,3-b][1,4]oxazepin-1(7H)-yl)-N-((4-(((1s,4s)-4-hydroxy-4-methylcyclohexyl)methoxy)-3-nitrophenyl)sulfonyl)benzamide], the EC50 was 36 nM in assay [1] and 25 nM in assay [2].
